The values that follow come from patent US20150238601A1, “TREATMENT OF OCULAR DISORDERS” (KADMON CORPORATION, LLC, priority 2012, published 2015).

In test [1] the target is T1, ROCK1 (Homo sapiens, UniProt Q13464). Briefly: Invitrogen Z'-LYTE Kinase Assay. Also noted: purchased Invitrogen PV3691. The conditions noted are these: 5 uM ATP, ROCK1 0.18 ug/mL. It is filed as biochemical.
Description: (§2) Dose response curves for Rho-kinase inhibition were derived from a Invitrogen Z′-LYTE™ Kinase Assay Kit (Invitrogen catalog number PV3793). Purified active ROCK1 and ROCK2 were obtained from Invitrogen (catalog numbers ROCK1, PV3691 and ROCK2, PV3759). The kit components include a coumarin and fluorescein labeled peptide based on myosin light chain 2 ([sequence]), a proprietary protease containing development reagent and a proprietary Stop buffer used to terminate the development reaction. The inhibitory activities of compounds are measured according to the manufactures protocol. […] The assay proceeds at room temperature for 1 hour followed by the addition of development reagent, and further incubation for 1 hour at room temperature. […] By comparing the emission ratios of the test samples against control samples, percent phosphorylation values are calculated and the concentration of inhibitor that produces 1/2 inhibition of kinase activity (IC50) is determined using Prism.
In test [2] the target is T2, ROCK2 (Homo sapiens, UniProt O75116).
T2 construct: purchased Invitrogen PV3759
Description: Invitrogen Z'-LYTE Kinase Assay. It is filed as biochemical.
Description: as §2

For test [3], the system named is CD4+ T cells from peripheral blood of RA patients. Briefly: CD4+ T cells of RA patients stimulated with anti-CD3/CD28 ex vivo. It is filed as cell-based, human.
For test [4], the system named is CD4+ human T cells. Description: T cell proliferation in response to TCR stimulation in vitro. It counts as cell-based. An excerpt: (§1) Activation of resting T cells, resulting in cytokine secretion and proliferation, involves two distinct signals from antigen-presenting cells (APCs), mimicked by co-stimulation of the T cell receptor (TCR)/CD3 complex and the CD28 receptor.

For test [5], the system named is CD4+ human T cells. Briefly: cytokine secretion of anti-CD3/CD28 stimulated CD4+ T cells in vitro. It counts as cell-based. The conditions noted are these: anti-CD3/CD28 stimulation.
Description: as §1

The test system of test [6] is STAT3 phosphorylation. Briefly: STAT3 phosphorylation in T cells. It counts as cell-based. The procedure:
STAT3 plays a critical role in Th17 differentiation via regulation of RORγt expression and direct binding to the IL-17 and IL-21 promoters. […] In a different experiment, cells we cultured under Th17-skewing conditions for 5 days and then treated with the ROCK2 selective inhibitor for 3 hours.

Test [7] has as its target T1, ROCK1. Briefly: biochemical.
Description: Dose response curves for Rho-kinase inhibition were derived from a Millipore immuno-based 96 well plate assay (Millipore catalog number CSA001). Purified active ROCK1 and ROCK2 were obtained from Invitrogen (catalog numbers ROCKI, PV3691 and ROCK2, PV3759). The kit components include assay plates, which are pre-coated with recombinant MYPT1, which contains a specifically phosphorylatable Thr696. The inhibitory activities of compounds are measured according to the manufactures protocol. […] The assay proceeds at 300 Celsius for 30 minutes with gentle shaking at 120 rpm. The assay is terminated by washing of the plate 3 times with Tris-buffered saline and tween wash buffer. Anti-phospho-MYPT1 (Thr696) antibody is added to each well to detect the phosphorylated substrate and incubated for 1 hour at room temperature after which HRP conjugated anti-rabbit IgG secondary is added for 1 hour at room temperature. After washing the assay is developed using a substrate reagent and the absorbance is read at 450 nm on a Tecan Infinite M1000 reflecting the relative remaining ROCK phosphorylation activity.
Test [8] concerns subfoveal choroidal neovascularization (CNV) lesion secondary to AMD. Description: study in subjects with subfoveal CNV lesion secondary to AMD. It counts as in vivo, human. The conditions noted are these: Example 43 with Mab 106 vs Mab 106, six months. How it is done: A study is conducted of 50 men and women having subfoveal choroidal neovascularization (CNV) lesion secondary to AMD. […] Subjects are observed over six months to determine intraocular inflammation, macular thickness, and the status of macular perfusion. Visual acuity is also measured over the time period.

In test [9] the test system is proliferative diabetic retinopathy. Briefly: preoperative treatment of proliferative diabetic retinopathy / diabetic macular edema. It counts as in vivo, human. As to conditions: with pegaptanib, compared to pegaptanib alone, intravitreal, 8 weeks after surgery. The procedure: The agents are administered by intravitreal injection. Subjects are evaluated over 8 weeks following surgery as to post operative rebleed, macular edema post injection, and pre- and post-injection levels of VEGF165. It is expected that compared to pegaptanib alone, administration of compound 154 results in reduced bleeding and macular edema.

[10] abbreviates: Z'-LYTE, 12 uM ATP, ROCK2 0.8 ug/mL, read-out: ROCK2 IC50.
Where [11] appears, read: 2 RA patients, intracellular staining.
[12] abbreviates: RA patients, ex vivo, TCR stimulation.

Usually IC50 stands for the concentration at which inhibition is half-maximal. The Ki is a dissociation constant, usually derived from enzyme kinetics or from competition with a known ligand. Low values mean tighter binding, high ones weaker binding.

SMILES strings stand for the structures. Structures can show the parent of a compound that is named as a salt. Where two headings read alike, the source gives them in different places.

T2 sequence (O75116 whole entry): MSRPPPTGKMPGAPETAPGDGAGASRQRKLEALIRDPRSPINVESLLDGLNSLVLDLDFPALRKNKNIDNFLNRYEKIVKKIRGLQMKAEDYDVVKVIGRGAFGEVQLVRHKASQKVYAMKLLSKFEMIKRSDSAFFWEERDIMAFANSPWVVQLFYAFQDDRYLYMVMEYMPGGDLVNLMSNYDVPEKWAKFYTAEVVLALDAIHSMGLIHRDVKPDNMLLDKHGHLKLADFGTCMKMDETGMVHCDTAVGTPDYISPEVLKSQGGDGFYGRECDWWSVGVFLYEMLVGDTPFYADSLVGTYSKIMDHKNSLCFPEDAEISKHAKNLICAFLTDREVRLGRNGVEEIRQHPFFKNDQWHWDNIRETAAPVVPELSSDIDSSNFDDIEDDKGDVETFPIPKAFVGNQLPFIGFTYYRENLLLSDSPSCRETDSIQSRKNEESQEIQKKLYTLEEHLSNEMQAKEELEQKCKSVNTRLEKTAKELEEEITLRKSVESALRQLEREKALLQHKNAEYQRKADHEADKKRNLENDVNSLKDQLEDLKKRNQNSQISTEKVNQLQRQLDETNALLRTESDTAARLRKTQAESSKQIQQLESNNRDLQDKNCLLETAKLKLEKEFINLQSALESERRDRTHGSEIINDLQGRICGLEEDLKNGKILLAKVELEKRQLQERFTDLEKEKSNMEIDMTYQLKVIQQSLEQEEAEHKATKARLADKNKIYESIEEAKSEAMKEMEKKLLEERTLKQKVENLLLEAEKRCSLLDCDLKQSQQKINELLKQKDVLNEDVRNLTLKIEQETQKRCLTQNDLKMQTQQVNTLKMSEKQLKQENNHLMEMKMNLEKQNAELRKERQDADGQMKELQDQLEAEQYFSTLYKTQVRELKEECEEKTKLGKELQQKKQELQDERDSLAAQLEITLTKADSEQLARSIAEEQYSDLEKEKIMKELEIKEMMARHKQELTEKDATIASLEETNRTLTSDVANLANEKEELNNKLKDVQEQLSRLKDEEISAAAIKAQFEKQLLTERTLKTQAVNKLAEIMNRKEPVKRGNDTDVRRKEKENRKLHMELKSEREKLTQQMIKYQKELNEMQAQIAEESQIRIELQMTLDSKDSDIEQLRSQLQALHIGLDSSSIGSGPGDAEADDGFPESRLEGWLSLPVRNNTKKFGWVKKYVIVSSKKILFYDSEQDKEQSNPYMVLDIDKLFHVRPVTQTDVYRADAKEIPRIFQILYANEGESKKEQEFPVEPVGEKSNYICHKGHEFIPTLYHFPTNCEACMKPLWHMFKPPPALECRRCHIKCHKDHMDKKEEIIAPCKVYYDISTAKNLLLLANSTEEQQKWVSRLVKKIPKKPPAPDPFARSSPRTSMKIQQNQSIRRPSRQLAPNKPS
T1 sequence (Q13464 whole entry): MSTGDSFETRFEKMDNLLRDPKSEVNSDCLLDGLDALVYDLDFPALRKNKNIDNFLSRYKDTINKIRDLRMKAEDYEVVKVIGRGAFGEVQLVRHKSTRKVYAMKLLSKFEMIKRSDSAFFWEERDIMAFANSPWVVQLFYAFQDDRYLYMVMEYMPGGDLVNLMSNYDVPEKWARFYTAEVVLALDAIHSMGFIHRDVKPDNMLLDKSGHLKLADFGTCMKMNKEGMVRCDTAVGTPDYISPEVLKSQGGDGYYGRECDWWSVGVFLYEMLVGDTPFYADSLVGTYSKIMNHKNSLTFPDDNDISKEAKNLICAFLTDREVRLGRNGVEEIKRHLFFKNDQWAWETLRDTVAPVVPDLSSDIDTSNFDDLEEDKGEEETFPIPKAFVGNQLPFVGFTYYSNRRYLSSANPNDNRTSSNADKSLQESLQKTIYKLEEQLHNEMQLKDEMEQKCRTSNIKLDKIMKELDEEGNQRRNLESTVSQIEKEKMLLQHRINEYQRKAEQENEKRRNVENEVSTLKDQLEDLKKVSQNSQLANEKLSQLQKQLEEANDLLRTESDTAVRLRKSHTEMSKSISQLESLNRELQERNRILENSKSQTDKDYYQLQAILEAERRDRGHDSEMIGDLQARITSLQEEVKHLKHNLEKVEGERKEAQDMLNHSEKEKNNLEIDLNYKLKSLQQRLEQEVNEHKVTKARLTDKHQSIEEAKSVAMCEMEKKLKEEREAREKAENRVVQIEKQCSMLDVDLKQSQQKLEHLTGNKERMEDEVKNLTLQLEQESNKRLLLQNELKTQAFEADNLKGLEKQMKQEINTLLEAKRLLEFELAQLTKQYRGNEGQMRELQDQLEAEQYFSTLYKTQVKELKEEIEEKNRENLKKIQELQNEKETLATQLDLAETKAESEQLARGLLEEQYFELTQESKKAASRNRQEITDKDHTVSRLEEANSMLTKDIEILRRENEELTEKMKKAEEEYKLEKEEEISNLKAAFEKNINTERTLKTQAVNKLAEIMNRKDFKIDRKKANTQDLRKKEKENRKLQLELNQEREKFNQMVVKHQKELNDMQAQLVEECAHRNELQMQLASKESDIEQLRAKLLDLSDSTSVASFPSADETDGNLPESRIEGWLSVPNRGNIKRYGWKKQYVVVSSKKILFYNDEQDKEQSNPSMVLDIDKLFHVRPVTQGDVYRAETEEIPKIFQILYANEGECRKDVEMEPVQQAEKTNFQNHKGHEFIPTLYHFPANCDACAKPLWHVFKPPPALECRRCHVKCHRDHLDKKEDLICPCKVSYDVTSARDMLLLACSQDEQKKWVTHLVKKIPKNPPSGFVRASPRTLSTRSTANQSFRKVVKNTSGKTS

For the compound `COCCOc1cccc(-c2nccc(Nc3ccc4[nH]ncc4c3)n2)c1` [Example 138, N-(2-(3-(2-methoxyethoxyl)phenyl)pyrimidin-4-yl)-1H-indazol-5-amine], the values for the IC50 in test [1] and in [2] (setting [10]) were 1980 nM and 8 nM, respectively.
The like results for `CC(N)c1cccc(-c2nccc(Nc3ccc4[nH]ncc4c3)n2)c1` (centres unmarked) [Example 147, N-(2-(3-(1-aminoethyl)phenyl)pyrimidin-4-yl)-1H-indazol-5-amine] were, in that order, more than 2000 nM and more than 5500 nM.
On to `COc1cccc(-c2nccc(Nc3ccc4[nH]ncc4c3)n2)c1` [Example 140, N-(2-(3-methoxyphenyl)pyrimidin-4-yl)-1H-indazol-5-amine], for which the IC50 in test [1] stood at 1910 nM; in [2] (setting [10]), 55 nM.
Regarding `CC(C)NC(=O)COc1cccc(-c2nc(Nc3ccc4[nH]ncc4c3)cc(N3CCCNCC3)n2)c1` [Example 121, 2-(3-(4-((1H-indazol-5-yl)amino)-6-(1,4-diazepan-1-yl)pyrimidin-2-yl)phenoxy)-N-isopropylacetamide], the IC50 stood at 1390 nM in test [1] and 13 nM in [2] (setting [10]).
On to `c1cc(OCCN2CCOCC2)cc(-c2nccc(Nc3ccc4[nH]ncc4c3)n2)c1` [Example 144, N-(2-(3-(2-morpholinoethoxyl)phenyl)pyrimidin-4-yl)-1H-indazol-5-amine], for which the IC50 in [1] is 1930 nM; in test [2] (setting [10]) it was 58 nM.
For the compound `CC(C)NC(=O)COc1cccc(-c2nc(Nc3ccc4[nH]ncc4c3)c3ccccc3n2)c1` [SLx-2119], in test [3] (setting [11]), the “frequency of IFN-γ-producing cells” value was “significantly reduced” and the “frequency of IL-17-producing cells” value was “significantly reduced”. In test [3] (setting [12]), the IFN-γ secretion result is reported as “significantly down-regulated”, the IL-17 secretion entry is listed as “significantly down-regulated” and the IL-21 secretion result is reported as “significantly down-regulated”. In addition, the “ability of T cells to proliferate in response to TCR stimulation” value in [4] was “down-regulated”. For the same compound, in test [5] (dose-dependent), the IL-17 secretion result was “significantly inhibited” and the IL-21 secretion result is reported as “significantly inhibited”. For the same compound, the “inhibition of IFN-γ secretion” value in test [5] (high dose 10 μM) was “less robust and significant only at high dose”. For the same compound, the “phosphorylation of STAT3” value in [6] (T cells pre-treated, then stimulated with anti-CD3/CD28 antibodies) is given as “reduced”. Also, in test [6] (Th17-skewing conditions 5 days, then treated 3 hours), the STAT3 phosphorylation result was “reduced”.
As for `O=C(COc1cccc(-c2nccc(Nc3ccc4[nH]ncc4c3)n2)c1)N[C@@H]1CCNC1` [Example 12, (R)-2-(3-(4-((1H-indazol-5-yl)amino)pyrimidin-2-yl)phenoxy)-N-(pyrrolidin-3-yl)acetamide HCl salt], in test [7], inhibition was half-maximal at 1770 nM (IC50) and the Ki turned out to be 70 nM.
For the compound `CC(C)NC(=O)COc1cccc(-c2nc(Nc3ccc4[nH]ncc4c3)cc(C(F)(F)F)n2)c1` [Example 169], the IC50 in test [1] and in test [2] (setting [10]) was more than 10000 nM throughout.
The compound `c1cc(OCc2ccncc2)cc(-c2nccc(Nc3ccc4[nH]ncc4c3)n2)c1` [Example 136, N-(2-(3-(pyridin-4-ylmethoxy)phenyl)pyrimidin-4-yl)-1H-indazol-5-amine] returned an IC50 in test [1] of 170 nM.
`CC(C)NC(=O)COc1cccc(-c2ncc(OCCN(C)C)c(Nc3ccc4[nH]ncc4c3)n2)c1` [Example 43, 2-(3-(4-((1H-indazol-5-yl)amino)-5-(2-(dimethylamino)ethoxy)pyrimidin-2-yl)phenoxy)-N-isopropylacetamide TFA salt]: the IC50 in test [1] is 750 nM. Moreover, in test [8], the intraocular inflammation entry is “less” and the macular perfusion entry is reported as “less”. Moreover, the IC50 in test [2] (setting [10]) was 25 nM.
In the case of `O=C(Oc1cccc(-c2nccc(Nc3ccc4[nH]ncc4c3)n2)c1)N1CCOCC1` [Example 129, 3-(4-((1H-indazol-5-yl)amino)pyrimidin-2-yl)phenyl morpholine-4-carboxylate], the IC50 amounted to 1100 nM in test [1] and 10 nM in test [2] (setting [10]).
Take `CC(C)NCCOc1cccc(-c2nccc(Nc3ccc4[nH]ncc4c3)n2)c1` [Example 154, N-(2-(3-(2-(isopropylamino)ethoxy)phenyl)pyrimidin-4-yl)-1H-indazol-5-amine]: in [9], the “bleeding (post operative rebleed)” value was “reduced” and the macular edema entry is “reduced”.
`CN(C)C(=O)Oc1cccc(-c2nccc(Nc3ccc4[nH]ncc4c3)n2)c1` [Example 131, 3-(4-((1H-indazol-5-yl)amino)pyrimidin-2-yl)phenyl dimethylcarbamate] came in with an IC50 in test [2] of 39 nM.
